For the experiment, the system named is HepG2 cells. Description: Influence of peptide-binding MSC-derived / HEK293 cell-derived exosome solutions on cell growth (Experimental Example 5). Format: cell-based. As to the method:
After the sample medium was added, culturing was performed for 48 hours, and using the 8-channel pipette, washing was performed twice with 100 μl of a serum-free DMEM medium (H-Glc). A 10% FBS (exosome-depleted) DMEM (H-Glc) medium was added at 100 μl/well. In addition, after culturing was performed for 48 hours, Premix WST-1 Cell Proliferation Assay System (reagent for cell growth measurement, commercially available from Takara Bio Inc.) was added at 10 μl/well, and color development was performed by performing incubation for 2 hours under […] conditions. The absorbance at 440 nm was measured using “Synergy HTX Multimode Plate Reader” (culture plate absorptiometer, commercially available from Bio Tek Instruments, Inc.). The average absorbance of the control group (no liposome added) was set as 100, the percentage of the absorbance of each well was calculated and used as an index of the degree of cell growth. Here, the Tukey Kramer method was used for the multiple comparison test.
A solution of a peptide having an amino acid sequence shown in SEQ ID NO: 1 was added to a 20 mM borate buffer solution (pH 8.6). In addition, Lipofectamine (registered trademark) (solution for transfection) was dissolved in a serum-free DMEM to prepare a 10% Lipofectamine solution. […]

We go through 1 sequence from patent US20250009903A1, “PEPTIDE-BINDING HYBRID LIPOSOME EXOSOME, PEPTIDE-BINDING EXOSOME, COMPOSITION CONTAINING SAME, AND METHOD OF FORMING SAME” (SEKISUI CHEMICAL CO., LTD., priority 2021, published 2025).

As for “WEAALAEALAEALAEHLAEALAEALEALAA (Amino acid sequence derived from a protein fragment) [peptide]”, the “% with respect to control group (degree of cell growth)” value was 147.2% (Table 6A, Adipo-MSC-derived exosome 40 μg/ml, peptide SEQ ID NO: 1, DOX liposome 40 μM, n=6) and 141.3% (Table 6B, HEK293 cell-derived exosome 40 μg/ml, peptide SEQ ID No. 1, DOX liposome 40 μM).
